Test results published in patent US4107201A, “S-Phenenyltris(thioureylene)trinaphthalenetrisulfonic acid salts” (American Cyanamid Company, priority 1977, dated 1978).
Where a name gives a salt, the structure may show the parent alone.

What was measured:
[1] = test system: late components of human complement (C3-C9); experiment: Test, Code 035 (C3-C9 inhibitor): lysis of EAC 142 by late components of human complement; format: biochemical; settings: well number in two-fold serial dilution assay; higher well number indicates higher activity
Excerpt: An active inhibitor protects C2 from C1 and C4; (ii) Test, Code 035 (C3-C9 inhibitor) -- This test determines the ability of the late components of human complement (C3-C9) to lyse EAC 142 in the presence of appropriate dilutions of the test compound. An active inhibitor protects EAC 142 from lysis by human C3-C9; (iii) Test, Code 036 (C-Shunt inhibitor) -- In this test human erythrocytes rendered fragile are lysed in autologous serum via the shunt pathway activated by cobra venom factor in the presence of appropriate dilutions of the test compound. Inhibition of the shunt pathway results in failure of lysis; (iv) Forssman Vasculitis Test -- Here, the well known complement dependent lesion, Forssman vasculitis, is produced in guinea pigs by intradermal injection of rabbit anti-Forssman antiserum. […]

[2] = test system: whole complement; experiment: Complement Level Reduction Test: serum whole complement of dosed guinea pigs by capillary tube assay; format: in vivo; settings: guinea pig, vs simultaneous controls
Excerpt: An active inhibitor protects C2 from C1 and C4; (ii) Test, Code 035 (C3-C9 inhibitor) -- This test determines the ability of the late components of human complement (C3-C9) to lyse EAC 142 in the presence of appropriate dilutions of the test compound. An active inhibitor protects EAC 142 from lysis by human C3-C9; (iii) Test, Code 036 (C-Shunt inhibitor) -- In this test human erythrocytes rendered fragile are lysed in autologous serum via the shunt pathway activated by cobra venom factor in the presence of appropriate dilutions of the test compound. Inhibition of the shunt pathway results in failure of lysis; (iv) Forssman Vasculitis Test -- Here, the well known complement dependent lesion, Forssman vasculitis, is produced in guinea pigs by intradermal injection of rabbit anti-Forssman antiserum. The lesion is measured in terms of diameter, edema and hemorrhage and the extent to which a combined index of these is inhibited by prior intraperitoneal injection of the test compound at 200 mg/kg is then reported, unless otherwise stated; (v) Forssman Shock Test -- Lethal shock is produced in guinea pigs by an i.v. injection of anti-Forssman antiserum and the harmonic mean death time of treated guinea pigs is compared with that of simultaneous controls; (vi) Complement Level Reduction Test -- In this test, the above dosed guinea pigs, or others, are bled for serum and the complement level is determined in undiluted serum by the capillary tube method of U.S. Pat. No. 3,876,376 and compared to undosed control guinea pigs; and (vii) Cap 50 Test -- Here, appropriate amounts of the test compound are added to a pool of guinea pig serum in vitro, after which the undiluted serum capillary tube assay referred to above is run. The concentration of compound inhibiting 50% is reported.
With reference to Table I, guinea pigs weighing about 300 g were dosed intravenously (i.v.) or intraperitoneally (i.p.) with 200 mg/kg of the test compound dissolved in saline and adjusted to pH 7-8. […] The serum was tested for whole complement using the capillary tube assay. Percent inhibition was calculated by comparison with simultaneous controls. The results appear in Table I together with results of tests, code 026, 035, 036, Cap 50, % inhibition and Forssman shock.

[3] = test system: hereditary angioneurotic edema; settings: in vivo; cited from earlier work
[4] = test system: complement system; settings: cited from earlier work
[5] = test system: total hemolytic complement activity (human serum); settings: in vitro and in vivo, reduction in total hemolytic complement activity; cited from earlier work

With `O=S(=O)(O)c1cc(NC(=S)Nc2cc(NC(=S)Nc3cc(S(=O)(=O)O)cc4cc(S(=O)(=O)O)cc(S(=O)(=O)O)c34)cc(NC(=S)Nc3cc(S(=O)(=O)O)cc4cc(S(=O)(=O)O)cc(S(=O)(=O)O)c34)c2)c2c(S(=O)(=O)O)cc(S(=O)(=O)O)cc2c1` [8,8',8"-[s-Phenenyltris(2-thioureylene)]tri-1,3,6-naphthalenetrisulfonic acid nonasodium salt] the “C-Late 035 Wells” value [1] was “+1 Wells”, the “% change in serum whole complement level” value ([2]; 200 mg/kg i.p., 30 mins.) was -81% and the “% change in serum whole complement level” value ([2]; 200 mg/kg i.p., 60 mins.) was -84%. For the same molecule, the “% change in serum whole complement level” value ([2]; 200 mg/kg i.p., 120 mins.) was -91%, the “% change in serum whole complement level” value ([2]; 200 mg/kg i.v., 2 mins.) was -98% and the “% change in serum whole complement level” value ([2]; 200 mg/kg i.v., 30 mins.) was -92%. For the same molecule, the “% change in serum whole complement level” value ([2]; 200 mg/kg i.v., 120 mins.) was -86%.

In the case of `Cc1ccc(C(=O)Nc2ccc(S(=O)(=O)O)c3cc(S(=O)(=O)O)cc(S(=O)(=O)O)c23)cc1NC(=O)c1cccc(NC(=O)Nc2cccc(C(=O)Nc3cc(C(=O)Nc4ccc(S(=O)(=O)O)c5cc(S(=O)(=O)O)cc(S(=O)(=O)O)c45)ccc3C)c2)c1` [Suramin], the “use in treatment of hereditary angioneurotic edema” value (from here on “use in treatment”) [3] is given as “used with success” and the “anticomplementary effect / complement inhibition” value [4] is given as “competitive inhibitor of the complement system”.

For `Nc1ccc2cc(S(=O)(=O)O)cc(O)c2c1N=Nc1ccc(NC(=O)Nc2ccc(N=Nc3c(N)ccc4cc(S(=O)(=O)O)cc(O)c34)c(S(=O)(=O)O)c2)cc1S(=O)(=O)O` [chlorazol fast pink, 3,3'-ureylenebis-[6-(2-amino-8-hydroxy-6-sulfo-1-naphthylazo)]benzenesulfonic acid, tetrasodium salt], the “anticomplementary effect / complement inhibition” value [4] is listed as “anticomplementary effect”.

In the case of `NCCCCCC(=O)O` [epsilon-aminocaproic acid], the “use in treatment” value [3] is listed as “used with success”.

In the case of `NC[C@H]1CC[C@H](C(=O)O)CC1` [tranexamic acid], the “use in treatment” value [3] is given as “used with success”.

For heparin, the “anticomplementary effect / complement inhibition” value [4] is given as “anticomplementary effect”.

For pentosan-poly-sulfoester, the “anticomplementary activity on human serum” value [5] is given as “anticomplementary activity on human serum both in vitro and in vivo”.
